# From patent publication US8288371B2, “Ortho pyrrolidine, benzyl-substituted heterocycle CCR1 antagonists for autoimmune diseases and inflammation” (Pharmacopeia, LLC, priority 2007, dated 2012)
# Molecular target: T1, human CCR1 (Homo sapiens, UniProt P32246)
# T1 sequence (P32246 1-355): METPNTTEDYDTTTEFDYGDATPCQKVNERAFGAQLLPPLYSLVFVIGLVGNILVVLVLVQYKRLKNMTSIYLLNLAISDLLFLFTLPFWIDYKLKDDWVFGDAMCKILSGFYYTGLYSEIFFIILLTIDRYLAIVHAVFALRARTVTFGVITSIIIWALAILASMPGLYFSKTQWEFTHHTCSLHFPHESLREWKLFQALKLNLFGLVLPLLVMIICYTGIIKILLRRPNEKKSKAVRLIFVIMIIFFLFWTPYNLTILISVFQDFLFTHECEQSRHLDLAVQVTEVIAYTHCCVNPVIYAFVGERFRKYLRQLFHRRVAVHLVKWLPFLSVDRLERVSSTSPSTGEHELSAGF
# Assay: CCR1 binding protocol (SPA, [125I]-MIP-1α displacement)
# Settings: cell membrane expressing human CCR1, 0.1 nM [125I]-MIP-1α, 4 hours at ambient temperature; read-out: Relative potency (IC50)
# In short: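 Displacement of 0.1 nM [125I]-MIP-1α (final) from membranes expressing human CCR1 was measured by scintillation proximity after 4 h at ambient temperature. Conditions: pH 7.4 Tris buffer with 0.1% BSA and MnCl, and 0.5 μg membrane per well. Compounds were tested as a 10-step ½-log series from a 10 mM DMSO stock to derive IC50.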
row,Structure (SMILES),IC50
1,O=C(N[C@H]1CCS(=O)(=O)c2ccc(Cl)cc21)N1CCC[C@@H]1c1nnc(CO)n1Cc1ccc(Cl)cc1 [Compound 371],50 to 500 nM
2,CC[C@H](NC(=O)N1CCC[C@@H]1c1nnc(C)n1Cc1ccc(Cl)cc1)c1ccc(C(F)(F)F)c(F)c1 [Compound 314],50 to 500 nM
3,O=C(N[C@H]1CCOc2cc(C(F)(F)F)ccc21)N1CCC[C@@H]1c1nnc(Cl)n1Cc1ccc(Cl)cc1 [Compound 194],< 50 nM
4,Cc1nnc([C@H]2CCCN2C(=O)NC2(c3ccccc3C(F)(F)F)CC2)n1Cc1ccc(Cl)cc1 [Compound 264],500 to 5000 nM
5,N#C/N=C(\N[C@H]1CCCc2ccccc21)N1CCC[C@@H]1c1nnnn1Cc1ccc(Cl)cc1 [Compound 50],500 to 5000 nM
6,Cc1nnc([C@H]2C[C@H](O)CN2C(=O)Cc2cccc(C(F)(F)F)c2)n1Cc1ccc(Cl)cc1 [Compound 499],50 to 500 nM
7,Cc1nnc([C@H]2CCCN2C(=O)N[C@H]2CCc3cc(C(F)(F)F)ccc32)n1Cc1ccc(Cl)cc1 [Compound 169],< 50 nM
8,CC(=O)N1CCC[C@@H](NC(=O)N2CCC[C@@H]2c2nnc(C)n2Cc2ccc(Cl)cc2)C1 [Compound 283],50 to 500 nM
9,COC1C[C@H](c2nnc(C)n2Cc2ccc(Cl)cc2)N(C(=O)Nc2ccc(C(F)(F)F)nc2C)C1 (some centres unmarked) [Compound 542],50 to 500 nM
10,Cc1nnc([C@H]2CCCN2C(=O)Cc2cc(C(F)(F)F)ccc2F)n1Cc1ccc(Cl)cc1 [Compound 510],< 50 nM
11,Cc1cc(Cl)cc(C)c1NC(=O)N1CCC[C@@H]1c1nccn1Cc1ccc(Cl)cc1 [Compound 33],< 50 nM
12,CC[C@H](NC(=O)N1CCC[C@@H]1c1ncnn1Cc1ccc(Cl)cc1)c1c(C)cc(C(F)(F)F)cc1C [Compound 90],50 to 500 nM
13,Cc1nnc([C@H]2C[C@H](O)CN2C(=O)N[C@@H](C)c2ccc(Cl)cc2)n1Cc1ccc(Cl)cc1 [Compound 474],< 50 nM
14,Cc1nnc([C@H]2CCCN2C(=O)N[C@@H](C)c2nc3ccccc3o2)n1Cc1ccc(Cl)cc1 [Compound 514],50 to 500 nM
15,Cc1nnc([C@H]2CCCN2C(=O)Nc2cc(F)c(Cl)cc2F)n1Cc1ccc(Cl)cc1 [Compound 427],< 50 nM
16,COC1C[C@H](c2nnc(C)n2Cc2ccc(Cl)cc2)N(C(=O)Nc2ccc(Cl)cc2F)C1 (some centres unmarked) [Compound 541],50 to 500 nM
17,Cc1cccc(Cl)c1NC(=O)N1CCC[C@@H]1c1nnc(C)n1Cc1ccc(Cl)cc1 [Compound 151],< 50 nM
18,Cc1nnc([C@H]2CCCN2C(=O)NC(C)C)n1Cc1ccc(Cl)cc1 [Compound 252],500 to 5000 nM
19,Cc1nnc([C@H]2CCCN2C(=O)NC2CCCCCC2)n1Cc1ccc(Cl)cc1 [Compound 186],50 to 500 nM
20,Cc1nc(-c2ccccc2)sc1NC(=O)N1CCC[C@@H]1c1ncnn1Cc1ccc(Cl)cc1 [Compound 83],50 to 500 nM
21,Cc1noc(C)c1NC(=O)N1CCC[C@@H]1c1nnc(C)n1Cc1ccc(Cl)cc1 [Compound 200],< 50 nM
22,Cc1nnc([C@H]2CCCN2C(=O)Nc2ccc(Cl)cc2)n1Cc1ccc(Cl)cc1 [Compound 160],50 to 500 nM
23,Cc1cccc(-c2noc(C)c2NC(=O)N2CCC[C@@H]2c2nnc(C)n2Cc2ccc(Cl)cc2)c1 [Compound 288],< 50 nM

row,Structure (SMILES),IC50
1,CC[C@@H](NC(=O)N1CCC[C@@H]1c1nnc(C)n1Cc1ccc(Cl)cc1)c1ccc(C(F)(F)F)nc1 [Compound 458],< 50 nM
2,CCc1nnc([C@H]2CCCN2C(=O)Nc2ccc(Cl)cc2F)n1Cc1ccc(Cl)cc1 [Compound 583],< 50 nM
3,Cc1nnc([C@H]2CCCN2C(=O)N[C@H]2CCc3cc(Cl)ccc32)n1Cc1ccc(Cl)cc1 [Compound 127],< 50 nM
4,Cc1noc(C)c1CC(=O)N1C[C@@H](O)C[C@@H]1c1nnc(C)n1Cc1ccc(Cl)cc1 [Compound 630],50 to 500 nM
5,Cc1nnc([C@H]2CCCN2C(=O)Nc2ccccn2)n1Cc1ccc(Cl)cc1 [Compound 253],500 to 5000 nM
6,Cc1nc(C(F)(F)F)ccc1NC(=O)N1CCC[C@@H]1c1nnc(C)n1Cc1cccc(Br)c1 [Compound 553],500 to 5000 nM
7,O=C(Nc1ccc(C(F)(F)F)cc1Cl)N1CCC[C@@H]1c1ncnn1Cc1ccc(Cl)cc1 [Compound 70],50 to 500 nM
8,Cc1nnc([C@H]2C[C@@H](O)CN2C(=O)NCc2ccc(C(F)(F)F)cc2)n1Cc1ccc(Cl)cc1 [Compound 439],50 to 500 nM
9,Cc1nnc([C@H]2CCCN2C(=O)NC(C)(C)c2ccc(F)cc2)n1Cc1ccc(Cl)cc1 [Compound 275],< 50 nM
10,Cc1nnc([C@H]2C[C@@H](O)CN2C(=O)N[C@@H](C)c2ccc(Cl)cc2)n1Cc1ccc(Cl)cc1 [Compound 438],< 50 nM
11,Cc1cc(NC(=O)N2CCC[C@@H]2c2nnc(C)n2Cc2ccc(Cl)cc2)n(-c2ccccc2)n1 [Compound 341],< 50 nM
12,Cc1noc(C)c1NC(=O)N1CCC[C@@H]1c1nnc(C)n1Cc1ccc(F)cc1 [Compound 385],50 to 500 nM
13,CNC(=O)c1cc(C)cc(C)c1NC(=O)N1CCC[C@@H]1c1nnc(C)n1Cc1ccc(Cl)cc1 [Compound 210],< 50 nM
14,Cc1nnc([C@H]2CCCN2C(=O)N[C@H]2CCOc3cc(C(F)(F)F)ccc32)n1Cc1ccc(Cl)c(Cl)c1 [Compound 410],50 to 500 nM
15,Cc1nc(C(F)(F)F)ccc1CC(=O)N1CCC[C@@H]1c1nncn1Cc1ccc(Cl)cc1 [Compound 618],< 50 nM
16,COC(=O)c1cc(C)ccc1NC(=O)N1CCC[C@@H]1c1nnc(C)n1Cc1ccc(Cl)cc1 [Compound 248],500 to 5000 nM
17,Cc1nnc([C@H]2CCCN2C(=O)Nc2ccc(Cl)cc2F)n1C1(c2ccc(Cl)cc2)CC1 [Compound 325],50 to 500 nM
18,Cc1nnc([C@H]2CCCN2/C(=N\C#N)N[C@H]2CCOc3cc(C(F)(F)F)ccc32)n1Cc1ccc(Cl)cc1 [Compound 260],50 to 500 nM
19,O=C(N[C@H]1CCCOc2ccc(Cl)cc21)N1CCC[C@@H]1c1ncnn1Cc1ccc(Cl)cc1 [Compound 93],50 to 500 nM
20,Cc1nc(Cl)ncc1NC(=O)N1CCC[C@@H]1c1nnc(C)n1Cc1ccc(Cl)cc1 [Compound 350],< 50 nM
21,Cc1nnc([C@H]2CCCN2C(=O)Nc2ccc3c(c2)N(C)C(=O)CO3)n1Cc1ccc(F)cc1 [Compound 386],50 to 500 nM
22,Cc1nnc([C@H]2CCCN2C(=O)N[C@@H]2c3ccccc3C[C@H]2O)n1Cc1ccc(Cl)cc1 [Compound 403],50 to 500 nM
23,Cc1nnc([C@H]2CC(C)(O)CN2C(=O)Nc2ccc(Cl)cc2F)n1Cc1ccc(Cl)cc1 (some centres unmarked) [Compound 532],50 to 500 nM

row,Structure (SMILES),IC50
1,Cc1ccc(Cn2ccnc2[C@H]2CCCN2C(=O)Nc2ccc(C(F)(F)F)cc2)cc1 [Compound 46],500 to 5000 nM
2,CC(=O)N1CCCC(CNC(=O)N2CCC[C@@H]2c2nnc(C)n2Cc2ccc(Cl)cc2)C1 (some centres unmarked) [Compound 599],50 to 500 nM
3,Cc1nnc([C@H]2CCCN2C(=O)N[C@@H]2CCc3cc(Cl)ccc32)n1Cc1ccc(Cl)cc1 [Compound 143],50 to 500 nM
4,Cc1nnc([C@H]2CCCN2C(=O)Nc2ccc(Cl)cc2F)n1Cc1ccc(F)cc1 [Compound 367],50 to 500 nM
5,CCc1nnc([C@H]2CCCN2C(=O)Nc2c(C)noc2-c2ccccc2)n1Cc1ccc(Cl)cc1 [Compound 203],< 50 nM
6,N#C/N=C(\Nc1ccc(C(F)(F)F)cc1)N1CCC[C@@H]1c1nnc(CO)n1Cc1ccc(Cl)cc1 [Compound 372],500 to 5000 nM
7,Cc1nc(Cl)ccc1NC(=O)N1CCC[C@@H]1c1nnc(C)n1Cc1ccc(Cl)cc1 [Compound 398],< 50 nM
8,Cc1ccc(NC(=O)N2CCC[C@@H]2c2nnc(C)n2Cc2ccc(Cl)cc2)c(C(=O)N(C)C)c1 [Compound 295],50 to 500 nM
9,Cc1nnc([C@H]2CCCN2C(=O)Nc2ccncc2)n1Cc1ccc(Cl)cc1 [Compound 237],50 to 500 nM
10,Cc1nnc([C@H]2CCCN2C(=O)NC2(c3cccc(C(F)(F)F)c3)CC2)n1Cc1ccc(Cl)cc1 [Compound 265],< 50 nM
11,Cc1nnc([C@H]2CCCN2C(=O)NCC2CN(S(C)(=O)=O)C2)n1Cc1ccc(Cl)cc1 [Compound 591],500 to 5000 nM
12,Cc1nnc([C@H]2CCCN2C(=O)Cc2cccc(C(F)(F)F)c2)n1Cc1ccc(Cl)cc1 [Compound 461],50 to 500 nM
13,O=C(NC1(c2ccc(C(F)(F)F)cc2)CC1)N1C[C@H](O)C[C@@H]1c1nncn1Cc1ccc(Cl)cc1 [Compound 477],50 to 500 nM
14,Cc1nnc([C@H]2C[C@@H](O)CN2C(=O)Nc2ccc(C(F)(F)F)nc2Cl)n1Cc1ccc(Cl)cc1 [Compound 494],50 to 500 nM
15,Cc1nc(C(F)(F)F)ccc1N/C(=N\O)N1CCC[C@@H]1c1nnc(C)n1Cc1ccc(Cl)cc1 [Compound 605],50 to 500 nM
16,CCc1nnc([C@H]2CCCN2C(=O)Nc2c(C)cc(C(F)(F)F)cc2C)n1Cc1ccc(Cl)cc1 [Compound 167],< 50 nM
17,Cc1noc([C@H]2CCCN2C(=O)Nc2ccc(C(F)(F)F)cc2)c1Cc1ccc(Cl)cc1 [Compound 6],500 to 5000 nM
18,CC[C@@H](NC(=O)N1C[C@@H](O)C[C@@H]1c1nnc(C)n1Cc1ccc(Cl)cc1)c1ccc(C)o1 [Compound 495],50 to 500 nM
19,Cc1noc(C)c1NC(=O)N1CCC[C@@H]1c1nnc(C)n1C1(c2ccc(Cl)cc2)CC1 [Compound 324],50 to 500 nM
20,Cc1nnc([C@H]2CCCN2C(=O)N[C@H]2CCOc3c(F)ccc(Cl)c32)n1Cc1ccc(Cl)cc1 [Compound 165],50 to 500 nM
21,Cc1nnc([C@H]2CCCN2C(=O)Nc2ccncn2)n1Cc1ccc(Cl)cc1 [Compound 258],500 to 5000 nM
22,Cc1nc(C(F)(F)F)ccc1NC(=O)N1C[C@H](O)C[C@@H]1c1nnc(C)n1Cc1ccc(Cl)cc1 [Compound 521],< 50 nM
